Measured values as given in ChEMBL document CHEMBL1140230, “Discovery of begacestat, a Notch-1-sparing gamma-secretase inhibitor for the treatment of Alzheimer's disease” (J Med Chem, 2008).
Converted amounts (≈) assume the structure as drawn. The source made the active and inactive calls. The calls are words filed in the database; no cut-off is given here.

What was measured:
[1] = Metabolic stability in dog microsomes assessed as half life; type: ADME, Canis lupus familiaris, Microsome
[2] = Selectivity ratio of EC50 for gamma-secretase to EC50 for mouse notch processing
[3] = Inhibition of gamma-secretase expressed in CHO cells expressing human recombinant APP assessed as amyloid beta40 […]; type: cell-based
[4] = tested on: Mus musculus; experiment: Reduction of amyloid beta42 level in Tg2576 mouse brain at 5 mg/kg, po after 4 hrs; type: functional; design: scale not given: the % may be the effect or the level left
[5] = in vitro; conditions: human, microsomes
Description: Metabolic stability in human microsomes assessed as half life

[6] = Metabolic stability in rat microsomes assessed as half life; type: ADME, Microsome
[7] = Dissociation constant, pKa of the compound; type: physicochemical
[8] = Metabolic stability in Tg2576 mouse microsomes assessed as half life; type: ADME, Microsome
[9] = tested on: Mus musculus; experiment: Reduction of amyloid beta40 level in Tg2576 mouse brain at 5 mg/kg, po after 4 hrs; type: functional; design: scale not given: the % may be the effect or the level left
[10] = Metabolic stability in monkey microsomes assessed as half life; type: ADME, Macaca mulatta, Microsome; conditions: rhesus monkey
[11] = species on record: Mus musculus; experiment: Reversal of cognitive deficits in contextual fear conditioning in Tg2576 mouse model; type: functional, organism-based
[12] = tested on: Mus musculus; experiment: Reduction of amyloid beta40 level in Tg2576 mouse brain at 100 mg/kg, po after 4 hrs; type: functional; design: scale not given: the % may be the effect or the level left
[13] = tested on: Mus musculus; experiment: Reduction of amyloid beta42 level in Tg2576 mouse brain at 100 mg/kg, po after 4 hrs; type: functional; design: scale not given: the % may be the effect or the level left
[14] = Ratio of drug level in brain to plasma in Tg2576 mouse model; type: ADME
[15] = Apparent permeability from basolateral to apical side in human Caco-2 cells; type: ADME, cell-based
[16] = Apparent permeability from apical to basolateral side in human Caco-2 cells; type: ADME, cell-based
[17] = Solubility in Phosal PG50/Tween-80/water; type: physicochemical
[18] = Membrane permeability by PAMPA assay; type: ADME; conditions: read-out: permeability
[19] = tested on: Mus musculus; experiment: Reduction of amyloid beta42 level in Tg2576 mouse brain at 10 mg/kg, po after 4 hrs; type: functional; design: scale not given: the % may be the effect or the level left
[20] = tested on: Mus musculus; experiment: Reversal of cognitive deficits in contextual fear conditioning in Tg2576 mouse model at 10 mg/kg, po; type: functional, organism-based; design: dose 10 mg/kg

SMILES	Ratio EC50 [2]	IC50 [3]	half-life [5]	half-life [6]	pKa [7]	half-life [8]	other results
C[C@H](NC(=O)Cc1cc(F)cc(F)c1)C(=O)N[C@H](C(=O)OC(C)(C)C)c1ccccc1							Activity [11]: Active; Activity [12]: 25%; Activity [13]: 25%
CC[C@H](C)[C@@H](CO)NS(=O)(=O)c1ccc(Br)cc1		2210 nM					Activity [19]: 25%; Activity [20]: Active
CC[C@H](C)[C@@H](CO)NS(=O)(=O)c1ccc(Cl)cc1		5450 nM					Activity [19]: 25%; Activity [20]: Active
CCC(CC)[C@@H](CO)NS(=O)(=O)c1ccc(Cl)cc1	14	294 nM					

Further lines, with some results ahead:

Ratio EC50 [2]	IC50 [3]	half-life [5]	half-life [6]	pKa [7]	half-life [8]	SMILES	other results
14	15 nM	> 90 min	3 min	8.3	48 min	O=S(=O)(N[C@H](CO)C(C(F)(F)F)C(F)(F)F)c1ccc(Cl)s1 [BEGACESTAT]	half-life [1]: 31 min; Activity [4]: 25%; Activity [9]: 37%; half-life [10]: 26 min
3.7	10700 nM					O=S(=O)(N[C@@H](CO)C(C(F)(F)F)C(F)(F)F)c1ccc(Cl)s1	
15	16 nM	8 min	8 min	8.9	24 min	O=S(=O)(N[C@H](CO)C(CC(F)(F)F)CC(F)(F)F)c1ccc(Cl)s1	half-life [1]: 13 min; Activity [4]: 22%; Activity [9]: 27%; half-life [10]: 5 min
10	25 nM	8 min	1 min	9.6	2 min	CCC(CC)[C@@H](CO)NS(=O)(=O)c1ccc(Cl)s1 [GSI-136]	Kp [14]: 2; Activity [12]: 25%; Papp B→A [15]: 43 ×10⁻⁶ cm/s; Activity [13]: 25%; Papp A→B [16]: 50 ×10⁻⁶ cm/s; solubility [17]: 6700 µg/mL (≈ 21.5 mM); Papp [18]: 12.5 ×10⁻⁶ cm/s
	297 nM					CC[C@H](C)[C@@H](CO)NS(=O)(=O)c1ccc(Cl)s1	
